Test results from US12220391B2, “Compositions and methods of use of β-hydroxy-β-methylbutyrate (HMB) for modulating autophagy and lipophagy” (Metabolic Technologies, LLC, priority 2016, dated 2025).
Each block holds one compound with its values, some of them ahead of it.

Experiments:
[1] = compared with CaHMB; cited from earlier work
[2] = test system: caspases-3 and -8 proteases; details: cited from earlier work
BNIP3 = BNIP3 gene expression in human primary adipocytes; format: cell-based; details: 1 mM HMB, 96 hours, n=3, p<0.05
Excerpt: (§1) These transcription factors represent two different autophagy pathways.

AMPK [3] = assay: AMPK activation (phosphorylated AMPK substrates, total AMPK) in primary human adipocytes; format: cell-based; details: 1 mM HMB, 96 hours
Method: A line of subcutaneous preadipocytes isolated from normal humans (non-diabetic controls) was used. These cells differentiate well (see FIG. 4) and provide a good in vitro model for studying effects of HMB on lipophagy. […] Differentiated adipocytes (14 days post confluence) were treated for 4 days with 1 mM HMB supplemented in normal growth medium. Lysates were probed with an antibody (Cell Signal Technologies) directed against AMPK phosphorylated substrates (consensus motif LCRXXpS/pT) to obtain a broad evaluation of AMPK activation and total AMPK levels were also measured. […] The cells were lysed and probed for phosphorylated targets of AMPK and for total AMPK levels (FIG. 5B).

[4] = healthy young or old adults; cited from earlier work
[5] = test system: plasma CPK (creatine phosphokinase); details: following intense exercise, within the first 48 hrs of supplementation; cited from earlier work
adipocytes (SGBS) = assay: Phosphor protein array, SGBS adipocytes; format: cell-based; details: HMB-treated SGBS adipocytes
Method: (§2) Lysates from HMB-treated muscle (HSMM) and adipocytes (SGBS) were analyzed using a phosphor protein array. Many mTOR targets were regulated in both cell system (FIG. 8). Increases in CREB phosphorylation on serine 133 on a signaling protein array using SGBS adipocytes treated HMB was seen (FIG. 8). Thus, the activating phosphorylation of CREB at S133 mediates induction of TFEB in these adipocytes and this pathway results in the upregulation of autophagy.

[6] = test system: ubiquitin-proteosome proteolytic pathway; details: muscle protein catabolism stimulated by PIF, LPS and angiotensin II; cited from earlier work
[7] = test system: adipose triglyceride lipase (ATGL); assay: ATGL gene expression in differentiated adipocytes; format: cell-based; details: HMB, 96 hours, n=6, p<0.05
Method: (§3) Differentiated adipocytes were treated with HMB in regular growth medium for determination of lipolysis and gene expression. The adipocytes were pretreated for 48 hours with 1 mM HMB (n=4), resulting in basal and 1 uM isoproterenol stimulated lipolysis (FIG. 3A).

mTOR = details: in vitro, through mTOR phosphorylation; cited from earlier work
TFEB = TFEB gene expression in human primary adipocytes; format: cell-based; details: 1 mM HMB, 96 hours, n=3, p<0.05
Excerpt: as §1

muscle cells (HSMM) = assay: Phosphor protein array, HSMM muscle cells; format: cell-based, human; details: HMB-treated HSMM muscle cells
Method: as §2

AMPK [8] = assay: AMPK activation in HEK293 cells; format: cell-based; details: similarly treated HEK293 cells (data not shown)
Primary preadipocytes = assay: Dual-labeled LC3 (DsRed/GFP) imaging of autophagy in primary preadipocytes; format: cell-based; details: 1 mM HMB, 4 days
Method: A primary adipocyte cell based assay for visualizing HMB activated lipophagy was developed. Primary preadipocytes were cultured on glass coverslips and treated with HMB for four days in regular growth medium. Cells were fixed and mounted with DAPI-containing medium and imaged with 60× objective. Autophagy vesicles are in red with degradation of green signal indicative of autophagy activation (FIG. 7). Nuclei are stained in blue (FIG. 7). A dual-labeled LC3 retroviral expression contrast was used to generate recombinant retrovirus using 293GPG cells. Primary preadipocytes were infected with the viral particles and, starting with four days after infection, selected with geneticin for two weeks prior to the imaging experiments. The LC3 fusion construct labels the autophagosomes and harbors dual signals; DsRed and GFP green probes. In the basal state there is co-localization of the green and red signals resulting in a yellow signal in the merged panel (FIG. 7 top panel with no HMB). When autophagy is activated, the GFP probe is cleaved from LC3 by ATG4 and degraded resulting in loss of the green signal and in absence of the co-localization in the merged panel. The initial studies used preadipocytes infected with the LC3 containing retrovirus and treated or not treated for 4 days with 1 mM HMB (FIG. 7, top: no HMB, bottom +HMB).

[9] = test system: autophagy related protein (ATG7); assay: ATG7 gene expression in differentiated adipocytes; format: cell-based; details: HMB, 96 hours, n=6, p<0.05
Method: as §3

[10] = after HMB is fed; cited from earlier work
[11] = test system: differentiated adipocytes; assay: Lipolysis in differentiated adipocytes; format: cell-based; details: pretreated 48 hours with 1 mM HMB; basal and 1 uM isoproterenol; n=4
Method: as §3

ATG7 = ATG7 gene expression (qPCR) in primary human skeletal muscle myotubes; format: cell-based; details: HMB 1 mM, 4 days, HSMM myotubes, qPCR normalized to 36B4, n=6
Method: Cultured primary human skeletal muscle cells (HSMM, Lonza) were grown to confluence and differentiated into myotubes. The cells were then supplemented with HMB (1 mM) for 4 days (n=6 for treatment or control groups) with a medium change every other day. Gene expression (mRNA) was determined at the end of the treatment by quantitative polymerase chain reaction (qPCR). For normalization, the mRNA signal was adjusted to the co-amplified signal of the ribosomal protein 36B4.

SMILES: CC(C)(O)CC(=O)O [HMB free acid, β-hydroxy-β-methylbutyric acid]
absorption [1]: absorbed quicker
tissue clearance [1]: greater tissue clearance

Yes kinase phosphorylation (adipocytes (SGBS)): Enhanced
ATGL gene expression [7]: significantly increased
SMILES: CC(C)(O)CC(=O)O [HMB, β-hydroxy-β-methylbutyric acid]
activation of caspases-3 and -8 proteases [2]: attenuates
BNIP3 mRNA levels (BNIP3): increased
total AMPK levels (AMPK [3]): not significantly changed
AMPK substrate phosphorylation intensity (AMPK [3]; densitometry, n=3, p<0.01): significant increase
side effects [4]: no side effects
muscle damage measured by elevated plasma CPK [5]: reduced
CREB phosphorylation (serine 133) (adipocytes (SGBS)): enhanced
HSP27 phosphorylation (adipocytes (SGBS)): enhanced
activation of p53 (adipocytes (SGBS)): Reduced activation
activation of pSTAT3 (adipocytes (SGBS)): Reduced activation
activity of the mTOR pathway (adipocytes (SGBS)): Reduced activity
proteolysis [6]: decreases
protein synthesis (mTOR): stimulates
TFEB mRNA levels (TFEB): increased
RSK 1/2/3 phosphorylation at the mTOR site (S473) (muscle cells (HSMM)): significant reduction
activation of STAT3 (muscle cells (HSMM)): reduced activation
activation of p53 (muscle cells (HSMM)): reduced activation
mTOR activity (muscle cells (HSMM)): inhibition
p70 S6 kinase phosphorylation at several threonine p-sites (muscle cells (HSMM)): significant reduction
AMPK substrate phosphorylation increase (AMPK [8]): not observed
size of autophagic puncta (Primary preadipocytes): significant increases
LC3 GFP green signal and green/red co-localization (Primary preadipocytes; preadipocytes infected with LC3 retrovirus): Loss of green signals and absence of green/red co-localization
ATG7 gene expression [9]: significantly increased
loss of HMB to urine [10]: 20-50%
lipolysis (basal and isoproterenol stimulated) [11]: activates
ATG7 gene expression (mRNA) (ATG7): Significant (p<0.01) upregulation
